Like-named read-outs stand apart in the source and are kept apart here. Marks after values point to notes of the source that are not given here. Values belong to the compound of their own block, whether it stands above or below them.
Tests used:
healthy participants [1] = assay: Adverse events and bleeding-related AEs by treatment, phase I DDI study;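 further: counts from medical review of adverse event and bleeding-related adverse event reports, collected at selected times across the dosing interval, single US site, randomised 1:1:1 to one study part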
Description: Participants underwent screening evaluations to determine eligibility within 35 days of study drug administration, and eligible participants were randomly assigned 1:1:1 to a single part of the study.
Safety assessments were performed at selected times throughout the dosing interval (Supplementary Table 7). The assessments were based on medical review of AE and bleeding-related AE reports, and the results of vital sign measurements, ECG measurements, physical examinations, and clinical laboratory tests.

[2] = Plasma pharmacokinetics (LC-MS/MS, noncompartmental; GMR by linear mixed-effects model); conditions: for Increase of AUC(TAU) / Increase of Cmax: Treatment I (with milvexian) vs Treatment H (aspirin alone); for Cmax / Tmax / AUC / half-life: human, oral; for AUC: AUC(TAU); for half-life: T1/2, arithmetic mean [n] (SD);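 on all read-outs here: participants at one US clinical research site, randomized 1:1:1 to a single study part, with 90% CIs from a mixed-effects model on log-transformed PK parameters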
Description: (§2) The study (ClinicalTrials.gov Identifier: NCT03698513) was conducted at 1 clinical research center in the United States. […] Participants underwent screening evaluations to determine eligibility within 35 days of study drug administration, and eligible participants were randomly assigned 1:1:1 to a single part of the study.
(§3) All statistical analyses and calculations were performed using SAS® software (SAS Institute, Inc., Cary, North Carolina; version 9.3). All safety and plasma PK/PD data were summarized using descriptive statistics. Descriptive summaries were presented for continuous variables using number of subjects (N), mean, SD; median, minimum, and maximum. […] CIs were constructed using a linear mixed-effects model with treatment as a fixed effect and measurements within participants as repeated measures fitted to the log-transformed PK parameters.

[3] = tested on: platelet aggregation induced by adenosine diphosphate (ADP); assay: ADP (20 µM)-induced platelet aggregation, light transmission aggregometry; type: in vivo, human
Description: (§1) PD assessments were performed on Days 1 (≤ 24 h) and 5 (≤ 72 h) of each period (Supplementary Table 8); assessments included aPTT[18], FXIc[18], and bleeding time (assessed according to the PPD® Laboratories [Austin, TX] procedure where a blood pressure cuff, situated above the incision site, provided pressure at 40 mmHg and blood from the incision was wicked with filter paper every 30 s until cessation to record bleeding time). In addition, AA (1 mM), ADP) (20 µM)-, and collagen (5 μg/ml)-induced platelet aggregation assays were performed using light transmission aggregometry (PPD® Laboratories) and performed on Days 1 and 5 (≤ 24 h) for only Period 1.

[4] = tested on: platelet aggregation induced by collagen; assay: Collagen (5 μg/ml)-induced platelet aggregation, light transmission aggregometry; type: in vivo, human
Description: as §1

[5] = tested on: arachidonic acid (AA)-induced platelet aggregation; assay: AA (1 mM)-induced platelet aggregation, light transmission aggregometry; type: in vivo, human
Description: as §1

[6] = in vivo
Description: as §2, §3

[7] = tested on: cytochrome P450 (CYP)–3A4; conditions: spray-dried dispersion formulation studies; cited from earlier work
[8] = cited from earlier work
[9] = tested on: patients who underwent knee arthroplasty; conditions: postoperative treatment, 25 mg QD to 200 mg BID; cited from earlier work
healthy participants [10] = assay: Bleeding time (PPD Laboratories procedure); type: in vivo, human; conditions: milvexian alone (Treatments B, D, G)
Description: as §1

[11] = tested on: activated partial thromboplastin time (aPTT); assay: Activated partial thromboplastin time (aPTT); type: in vivo, human; conditions: postdose on Day 5
Description: as §1

[12] = tested on: patients with acute ischemic stroke or high risk transient ischemic attack; conditions: 25 mg QD or 25, 50, 100, 200 mg BID on background of aspirin and clopidogrel; cited from earlier work
[13] = plasma, geometric mean (90% CI), Day 1, plasma, Treatment A (milvexian + aspirin + clopidogrel), Part 1
[14] = plasma, geometric mean (90% CI), Day 1, plasma, Treatment C (placebo + aspirin + clopidogrel), Part 1
[15] = plasma, geometric mean (90% CI), Day 1, plasma, Treatment H (placebo + aspirin), Part 3
[16] = plasma, geometric mean (90% CI), Day 1, plasma, Treatment I (milvexian + aspirin), Part 3
[17] = plasma, geometric mean [n] (90% CI), Day 5, plasma, Treatment C (placebo + aspirin + clopidogrel), Part 1
[18] = plasma, geometric mean [n] (90% CI), Day 5, plasma, Treatment H (placebo + aspirin), Part 3
[19] = plasma, Tmax, median (range), Day 1, plasma, Treatment A (milvexian + aspirin + clopidogrel), Part 1
[20] = plasma, Tmax, median (range), Day 1, plasma, Treatment C (placebo + aspirin + clopidogrel), Part 1
[21] = plasma, Tmax, median (range), Day 1, plasma, Treatment H (placebo + aspirin), Part 3
[22] = plasma, Tmax, median (range), Day 1, plasma, Treatment I (milvexian + aspirin), Part 3
[23] = plasma, Tmax, median [n] (range), Day 5, plasma, Treatment C (placebo + aspirin + clopidogrel), Part 1
[24] = plasma, Tmax, median [n] (range), Day 5, plasma, Treatment H (placebo + aspirin), Part 3
[25] = Day 1, Treatment A vs Treatment B (milvexian alone)
[26] = Day 1, plasma, Treatment F (milvexian + clopidogrel), Part 2
[27] = plasma, geometric mean [n] (90% CI), Day 5, plasma, Treatment D (milvexian alone), Part 2
[28] = milvexian alone (Treatments B, D, G), Days 1 and 5

Compound: CC(=O)Oc1ccccc1C(=O)O [Aspirin, acetylsalicylic acid, reference compound]
Anal fissure hemorrhage (healthy participants [1]; Part 3 (Treatments G-I)): 0 n (%) | Contusion (healthy participants [1]; Part 3 (Treatments G-I)): 0 n (%) | Deaths (healthy participants [1]; Part 3 (Treatments G-I)): 0 n (%) | Discontinuations due to AEs (healthy participants [1]; Part 3 (Treatments G-I)): 0 n (%) | Epistaxis (healthy participants [1]; Part 3 (Treatments G-I)): 1 (2.6)^‡‡ n (%) | Gingival bleeding (healthy participants [1]; Part 3 (Treatments G-I)): 0 n (%) | Serious AEs (healthy participants [1]; Part 3 (Treatments G-I)): 0 n (%) | Total participants with an AE (healthy participants [1]; Part 3 (Treatments G-I)): 9 (23.7) n (%) | Total participants with bleeding event(s) (healthy participants [1]; Part 3 (Treatments G-I)): 1 (2.6) n (%) | Vessel puncture site bruise (healthy participants [1]; Part 3 (Treatments G-I)): 0 n (%) | Events of epistaxis reported by a participant (healthy participants [1]; bleeding AE): 1 events | Percentage of participants reporting AEs (healthy participants [1]; by treatment, all parts): 23.7% | Increase of AUC(TAU) ([2]; Day 1): 24% | Increase of Cmax ([2]; Day 1): 40% | Increase of AUC(TAU) ([2]; Day 5): 19% | Increase of Cmax ([2]; Day 5): 33% | Cmax [2, 13]: 3050 ng/mL | Cmax [2, 14]: 2970 ng/mL | Cmax [2, 15]: 2450 ng/mL | Cmax [2, 16]: 3440 ng/mL | Cmax [2, 17]: 2890 ng/mL | Cmax [2, 18]: 2670 ng/mL | Tmax [2, 19]: 1 h | Tmax [2, 20]: 1 h | Tmax [2, 21]: 0.5 h | Tmax [2, 22]: 0.5 h | Tmax [2, 23]: 0.5 h | Tmax [2, 24]: 0.508 h | Inhibition of ADP-induced aggregation compared with baseline ([3]; drug alone (Treatment E or H)): ~ 15% | Inhibition of collagen-induced aggregation compared with baseline ([4]; drug alone (Treatment E or H)): ~ 25% | Inhibition of AA-induced aggregation compared with baseline ([5]; drug alone (Treatment E or H)): ~ 95%

Mean T1/2 ([6]; human): approximately 8 h | Reduction of Cmax [6]: 14%
Compound: O=C(O)[C@H](c1ccccc1Cl)N1CCc2sccc2C1 [Clopidogrel acid]

Compound: C[C@@H]1CCC[C@H](n2cnc(-c3cc(Cl)ccc3-n3cc(Cl)nn3)cc2=O)c2cc(ccn2)-c2c(cnn2C(F)F)NC1=O [Milvexian]
Anal fissure hemorrhage (healthy participants [1]; Part 2 (Treatments D-F)): 0 n (%) | Contusion (healthy participants [1]; Part 2 (Treatments D-F)): 0 n (%) | Deaths (healthy participants [1]; Part 2 (Treatments D-F)): 0 n (%) | Discontinuations due to AEs (healthy participants [1]; Part 2 (Treatments D-F)): 1 (2.8)^§ n (%) | Epistaxis (healthy participants [1]; Part 2 (Treatments D-F)): 0 n (%) | Gingival bleeding (healthy participants [1]; Part 2 (Treatments D-F)): 0 n (%) | Serious AEs (healthy participants [1]; Part 2 (Treatments D-F)): 0 n (%) | Total participants with an AE (healthy participants [1]; Part 2 (Treatments D-F)): 5 (13.9) n (%) | Total participants with bleeding event(s) (healthy participants [1]; Part 2 (Treatments D-F)): 0 n (%) | Vessel puncture site bruise (healthy participants [1]; Part 2 (Treatments D-F)): 0 n (%) | Anal fissure hemorrhage (healthy participants [1]; Part 3 (Treatments G-I)): 1 (2.7) n (%) | Contusion (healthy participants [1]; Part 3 (Treatments G-I)): 0 n (%) | Deaths (healthy participants [1]; Part 3 (Treatments G-I)): 0 n (%) | Discontinuations due to AEs (healthy participants [1]; Part 3 (Treatments G-I)): 1 (2.7)^¶ n (%) | Epistaxis (healthy participants [1]; Part 3 (Treatments G-I)): 0 n (%) | Gingival bleeding (healthy participants [1]; Part 3 (Treatments G-I)): 0 n (%) | Serious AEs (healthy participants [1]; Part 3 (Treatments G-I)): 0 n (%) | Total participants with an AE (healthy participants [1]; Part 3 (Treatments G-I)): 6 (16.2) n (%) | Total participants with bleeding event(s) (healthy participants [1]; Part 3 (Treatments G-I)): 1 (2.7) n (%) | Vessel puncture site bruise (healthy participants [1]; Part 3 (Treatments G-I)): 0 n (%) | Events of anal fissure hemorrhage reported by a single participant (healthy participants [1]; bleeding AE, Part 3, Treatment G): 1 events | Route of metabolism [7]: predominantly metabolized by cytochrome P450 (CYP)–3A4 | Reduction of AUC(TAU) [2, 25]: 15% | Reduction of Cmax [2, 25]: 17% | Tmax, median (range) ([2]; Day 1, plasma, Treatment A (milvexian + aspirin + clopidogrel), Part 1): 4.00 (2.13, 6.02) h | Tmax, median (range) ([2]; Day 1, plasma, Treatment B (milvexian alone), Part 1): 3.00 (2.00, 4.13) h | Tmax, median (range) ([2]; Day 1, plasma, Treatment D (milvexian alone), Part 2): 4.00 (2.00, 6.00) h | AUC(TAU), geometric mean [n] (90% CI) [2, 26]: 5042 (4621, 5503) ng•h/mL | Tmax, median (range) [2, 26]: 4.00 (2.00, 4.13) h | Tmax, median (range) ([2]; Day 1, plasma, Treatment G (milvexian alone), Part 3): 4.00 (2.00, 6.02) h | Tmax, median (range) ([2]; Day 1, plasma, Treatment I (milvexian + aspirin), Part 3): 4.00 (2.00, 6.03) h | Tmax, median [n] (range) ([2]; Day 5, plasma, Treatment B (milvexian alone), Part 1): 3.00 (0.00, 6.00) h | Tmax, median [n] (range) ([2]; Day 5, plasma, Treatment F (milvexian + clopidogrel), Part 2): 4.00 (1.00, 6.00) h | AUC ([2]; plasma, geometric mean [n] (90% CI), Day 1, plasma, Treatment B (milvexian alone), Part 1): 5610 ng·h/mL | AUC [2, 27]: 22000 ng·h/mL | Cmax [2, 13]: 718 ng/mL | Cmax ([2]; plasma, geometric mean (90% CI), Day 1, plasma, Treatment B (milvexian alone), Part 1): 868 ng/mL | Cmax ([2]; plasma, geometric mean (90% CI), Day 1, plasma, Treatment D (milvexian alone), Part 2): 898 ng/mL | Cmax ([2]; plasma, geometric mean (90% CI), Day 1, plasma, Treatment F (milvexian + clopidogrel), Part 2): 817 ng/mL | Cmax ([2]; plasma, geometric mean (90% CI), Day 1, plasma, Treatment G (milvexian alone), Part 3): 867 ng/mL | Cmax [2, 16]: 850 ng/mL | Cmax ([2]; plasma, geometric mean [n] (90% CI), Day 5, plasma, Treatment B (milvexian alone), Part 1): 2690 ng/mL | Cmax [2, 27]: 2670 ng/mL | Cmax ([2]; plasma, geometric mean [n] (90% CI), Day 5, plasma, Treatment F (milvexian + clopidogrel), Part 2): 2500 ng/mL | Tmax ([2]; plasma, Median Tmax, across Treatments A and B): 3 to 4 h | Tmax ([2]; plasma, Tmax, median [n] (range), Day 5, plasma, Treatment D (milvexian alone), Part 2): 3.05 h | Change of ADP-induced platelet aggregation compared with baseline [3, 28]: < 10% | Urine excretion [8]: < 20% | Effect on incidence of venous thromboembolism [9]: reduced the incidence of venous thromboembolism in a dose-dependent manner | Effect on bleeding time (healthy participants [10]): did not increase bleeding times | Time by which aPTT returned to baseline [11]: ≤ 72 h | Change of collagen-induced platelet aggregation compared with baseline [4, 28]: < 10% | Dose response for composite of symptomatic ischemic stroke or covert brain infarction [12]: did not produce a statistically significant dose response | Effect on AA-induced platelet aggregation ([5]; milvexian alone (Treatments B, D, G), not consistent, no correlation with milvexian concentration): a decrease in arachidonic acid (AA)-induced platelet aggregation was observed

AUC ([2]; plasma, geometric mean [n] (90% CI), Day 1, plasma, Treatment A (milvexian + aspirin + clopidogrel), Part 1): 92700 ng·h/mL | AUC ([2]; plasma, geometric mean [n] (90% CI), Day 1, plasma, Treatment C (placebo + aspirin + clopidogrel), Part 1): 93500 ng·h/mL | AUC ([2]; plasma, geometric mean [n] (90% CI), Day 1, plasma, Treatment H (placebo + aspirin), Part 3): 93300 ng·h/mL | AUC ([2]; plasma, geometric mean [n] (90% CI), Day 1, plasma, Treatment I (milvexian + aspirin), Part 3): 93600 ng·h/mL | AUC [2, 17]: 92000 ng·h/mL | AUC [2, 18]: 92500 ng·h/mL | Cmax [2, 13]: 17600 ng/mL | Cmax [2, 14]: 18100 ng/mL | Cmax [2, 15]: 16500 ng/mL | Cmax [2, 16]: 16300 ng/mL | Cmax [2, 17]: 17300 ng/mL | Cmax [2, 18]: 16500 ng/mL | half-life ([2]; plasma, Day 1, plasma, Treatment A (milvexian + aspirin + clopidogrel), Part 1): 2.21 h | half-life ([2]; plasma, Day 1, plasma, Treatment C (placebo + aspirin + clopidogrel), Part 1): 2.25 h | half-life ([2]; plasma, Day 1, plasma, Treatment H (placebo + aspirin), Part 3): 2.4 h | half-life ([2]; plasma, Day 1, plasma, Treatment I (milvexian + aspirin), Part 3): 2.39 h | half-life ([2]; plasma, Day 5, plasma, Treatment C (placebo + aspirin + clopidogrel), Part 1): 2.23 h | half-life ([2]; plasma, Day 5, plasma, Treatment H (placebo + aspirin), Part 3): 2.39 h | Tmax [2, 19]: 2 h | Tmax [2, 20]: 2 h | Tmax [2, 21]: 2.03 h | Tmax [2, 22]: 2 h | Tmax [2, 23]: 2.02 h | Tmax [2, 24]: 3 h
Compound: O=C(O)c1ccccc1O [Salicylic acid, salicylic acid]

Reference: article PMC11258331 (Scientific Reports, 2024)
